The source made the active and inactive calls. No cut-off for these calls is given here.
Assays:
Mus musculus [1] = assay: Reduction of immobility time in Albino Swiss mouse at 1 mg/kg, ip pretreated for 30 mins by forced swimming test; type: functional; parameters: scale not given: the % may be the effect or the level left; details: route intraperitoneal
Mus musculus [2] = assay: Reduction of immobility time in Albino Swiss mouse at 2 mg/kg, ip pretreated for 30 mins by forced swimming test; type: functional; parameters: scale not given: the % may be the effect or the level left; details: route intraperitoneal
[3] = target: T1, 5-hydroxytryptamine receptor 1A (Rattus norvegicus, UniProt P19327); assay: Displacement of [3H]8-OH-DPAT from 5HT1A receptor in rat brain membranes; type: cell membranes
T1 sequence (P19327 whole entry): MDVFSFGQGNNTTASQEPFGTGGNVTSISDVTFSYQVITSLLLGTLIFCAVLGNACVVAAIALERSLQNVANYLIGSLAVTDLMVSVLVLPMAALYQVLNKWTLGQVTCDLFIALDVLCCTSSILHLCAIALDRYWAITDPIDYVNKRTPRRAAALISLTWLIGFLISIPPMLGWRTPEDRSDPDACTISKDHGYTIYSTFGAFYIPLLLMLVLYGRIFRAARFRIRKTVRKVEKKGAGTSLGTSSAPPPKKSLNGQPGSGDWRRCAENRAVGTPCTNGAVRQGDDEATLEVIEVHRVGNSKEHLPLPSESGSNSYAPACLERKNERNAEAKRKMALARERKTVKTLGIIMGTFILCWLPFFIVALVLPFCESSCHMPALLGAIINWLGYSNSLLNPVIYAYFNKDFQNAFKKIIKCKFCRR

[4] = target: Sodium-dependent serotonin transporter (Rattus norvegicus, UniProt P31652); assay: Displacement of [3H]citalopram from 5HTT in rat brain membranes; type: cell membranes
Mus musculus [5] = assay: Induction of hypothermia in Albino Swiss mouse assessed as change in body temperature pretreated for 30 mins at 20 mg/kg, ip measured 90 mins after drug dose; type: functional, organism-based; parameters: dose 20 mg/kg
Mus musculus [6] = assay: Induction of hypothermia in Albino Swiss mouse assessed as change in body temperature pretreated for 30 mins at 20 mg/kg, ip measured 60 mins after drug dose; type: functional, organism-based; parameters: dose 20 mg/kg
Mus musculus [7] = assay: Induction of hypothermia in Albino Swiss mouse assessed as change in body temperature pretreated for 30 mins at 10 mg/kg, ip measured 120 mins after drug dose; type: functional, organism-based; parameters: dose 10 mg/kg
Mus musculus [8] = assay: Induction of hypothermia in 0.1 mg/kg WAY 100635 pretreated Albino Swiss mouse assessed as change in body temperature at 20 mg/kg, ip measured 60 mins after drug dose; type: functional, organism-based
Mus musculus [9] = assay: Induction of hypothermia in Albino Swiss mouse assessed as change in body temperature pretreated for 30 mins at 10 mg/kg, ip measured 30 mins after drug dose; type: functional, organism-based; parameters: dose 10 mg/kg
Mus musculus [10] = assay: Induction of hypothermia in Albino Swiss mouse assessed as change in body temperature pretreated for 30 mins at 5 mg/kg, ip measured 90 mins after drug dose; type: functional, organism-based; parameters: dose 5 mg/kg
Mus musculus [11] = assay: Induction of hypothermia in Albino Swiss mouse assessed as change in body temperature pretreated for 30 mins at 5 mg/kg, ip measured 120 mins after drug dose; type: functional, organism-based; parameters: dose 5 mg/kg
Mus musculus [12] = assay: Induction of hypothermia in Albino Swiss mouse assessed as change in body temperature pretreated for 30 mins at 5 mg/kg, ip measured 60 mins after drug dose; type: functional, organism-based; parameters: dose 5 mg/kg
Mus musculus [13] = assay: Induction of hypothermia in 0.1 mg/kg WAY 100635 pretreated Albino Swiss mouse assessed as change in body temperature at 20 mg/kg, ip measured 30 mins after drug dose; type: functional, organism-based
Mus musculus [14] = assay: Induction of hypothermia in Albino Swiss mouse assessed as change in body temperature pretreated for 30 mins at 20 mg/kg, ip measured 30 mins after drug dose; type: functional, organism-based; parameters: dose 20 mg/kg
Mus musculus [15] = assay: Induction of hypothermia in Albino Swiss mouse assessed as change in body temperature pretreated for 30 mins at 5 mg/kg, ip measured 30 mins after drug dose; type: functional, organism-based; parameters: dose 5 mg/kg
Mus musculus [16] = assay: Induction of hypothermia in Albino Swiss mouse assessed as change in body temperature pretreated for 30 mins at 20 mg/kg, ip measured 120 mins after drug dose; type: functional, organism-based; parameters: dose 20 mg/kg
Mus musculus [17] = assay: Induction of hypothermia in Albino Swiss mouse assessed as change in body temperature pretreated for 30 mins at 10 mg/kg, ip measured 90 mins after drug dose; type: functional, organism-based; parameters: dose 10 mg/kg
Mus musculus [18] = assay: Induction of hypothermia in Albino Swiss mouse assessed as change in body temperature pretreated for 30 mins at 10 mg/kg, ip measured 60 mins after drug dose; type: functional, organism-based; parameters: dose 10 mg/kg
Mus musculus [19] = assay: Reduction of immobility time in Albino Swiss mouse at 10 mg/kg, ip pretreated for 30 mins by forced swimming test; type: functional; parameters: scale not given: the % may be the effect or the level left
Mus musculus [20] = assay: Effect on spontaneous locomotor activity in Albino Swiss mouse assessed as number of light-beam crossings in actiometers pretreated for 30 mins at 20 mg/kg, ip measured during 30 mins post drug dose; type: functional; details: route intraperitoneal
Mus musculus [21] = assay: Effect on spontaneous locomotor activity in Albino Swiss mouse assessed as number of light-beam crossings in actiometers pretreated for 30 mins at 20 mg/kg, ip measured during 6 mins post drug dose; type: functional; details: route intraperitoneal
Mus musculus [22] = assay: Reduction of spontaneous locomotor activity in Albino Swiss mouse at 20 mg/kg, ip during 30 mins; type: functional, organism-based; parameters: dose 20 mg/kg
Mus musculus [23] = assay: Reduction of spontaneous locomotor activity in Albino Swiss mouse at 20 mg/kg, ip during 6 mins; type: functional, organism-based; parameters: dose 20 mg/kg
Mus musculus [24] = assay: Effect on spontaneous locomotor activity in Albino Swiss mouse assessed as number of light-beam crossings in actiometers pretreated for 30 mins at 10 mg/kg, ip measured during 6 mins post drug dose; type: functional; details: route intraperitoneal
Mus musculus [25] = assay: Effect on spontaneous locomotor activity in Albino Swiss mouse assessed as number of light-beam crossings in actiometers pretreated for 30 mins at 10 mg/kg, ip measured during 30 mins post drug dose; type: functional; details: route intraperitoneal
Mus musculus [26] = assay: Reduction of immobility time in Albino Swiss mouse at 20 mg/kg, ip pretreated for 30 mins by forced swimming test; type: functional; parameters: scale not given: the % may be the effect or the level left
Mus musculus [27] = organism: Mus musculus; details: Albino Swiss, 10 mg/kg
Description: Induction of hypothermia in 0.1 mg/kg WAY 100635 pretreated Albino Swiss mouse assessed as change in body temperature at 10 mg/kg, ip measured 60 mins after drug dose

Mus musculus [28] = organism: Mus musculus; details: Albino Swiss, 10 mg/kg; remark: listed apart in the source
Description: Induction of hypothermia in 0.1 mg/kg WAY 100635 pretreated Albino Swiss mouse assessed as change in body temperature at 10 mg/kg, ip measured 30 mins after drug dose

Mus musculus [29] = assay: Inhibition of 8-OH-DPAT-induced hypothermia in Albino Swiss mouse assessed as change in body temperature at 20 mg/kg, ip; type: functional, organism-based; parameters: dose 20 mg/kg

Sequence of Sodium-dependent serotonin transporter (P31652 whole entry): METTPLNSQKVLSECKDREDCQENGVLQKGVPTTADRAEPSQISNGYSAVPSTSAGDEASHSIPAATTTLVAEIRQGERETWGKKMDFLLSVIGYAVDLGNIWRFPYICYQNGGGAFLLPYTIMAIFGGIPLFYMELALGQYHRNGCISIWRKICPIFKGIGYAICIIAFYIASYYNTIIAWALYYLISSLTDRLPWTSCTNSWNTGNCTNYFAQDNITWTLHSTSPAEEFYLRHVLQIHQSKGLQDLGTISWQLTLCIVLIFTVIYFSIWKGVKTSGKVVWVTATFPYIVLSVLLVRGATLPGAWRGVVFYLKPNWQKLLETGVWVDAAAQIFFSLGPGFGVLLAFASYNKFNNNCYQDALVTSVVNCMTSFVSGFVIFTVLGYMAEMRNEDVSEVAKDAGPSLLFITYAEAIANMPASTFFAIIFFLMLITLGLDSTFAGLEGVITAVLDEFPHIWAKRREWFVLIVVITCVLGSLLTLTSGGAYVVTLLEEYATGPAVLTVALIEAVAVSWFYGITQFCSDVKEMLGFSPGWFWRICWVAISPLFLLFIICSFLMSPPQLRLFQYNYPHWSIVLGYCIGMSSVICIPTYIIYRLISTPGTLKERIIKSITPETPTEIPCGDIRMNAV

## Br.CCCN(CCC)C1CCc2cccc(O)c2C1 (configuration not stated)
Mus musculus [1]
  Activity: 45%
Mus musculus [2]
  Activity: 57%

## COc1ccc2[nH]cc(C3CCN(CCCCn4c(=O)c(-c5ccccc5F)c5ccccn5c4=O)CC3)c2c1
[3]
  Ki: 16.7 nM
[4]
  Ki: 59.3 nM

## O=c1c(-c2ccc(Cl)cc2)c2ccccn2c(=O)n1CCCCN1CCC(c2c[nH]c3ccccc23)CC1
Mus musculus [5]
  deltaT: -1.1 °C
Mus musculus [6]
  deltaT: -1 °C
Mus musculus [7]
  deltaT: -0.1 °C
[3]
  Ki: 37.1 nM
Mus musculus [8]
  deltaT: -0.2 °C
Mus musculus [9]
  deltaT: -0.4 °C
Mus musculus [10]
  deltaT: -0.4 °C
Mus musculus [11]
  deltaT: -0.2 °C
Mus musculus [12]
  deltaT: -0.4 °C
Mus musculus [13]
  deltaT: -0.4 °C
Mus musculus [14]
  deltaT: -1.2 °C
Mus musculus [15]
  deltaT: -0.5 °C
[4]
  Ki: 280 nM
Mus musculus [16]
  deltaT: -0.7 °C
Mus musculus [17]
  deltaT: -0.1 °C
Mus musculus [18]
  deltaT: -0.1 °C

## O=c1c(-c2ccccc2)c2ccccn2c(=O)n1CCCCN1CCC(c2c[nH]c3ccccc23)CC1
Mus musculus [5]
  deltaT: -1.1 °C
Mus musculus [6]
  deltaT: -1.3 °C
Mus musculus [7]
  deltaT: -0.1 °C
[3]
  Ki: 10.9 nM
Mus musculus [8]
  deltaT: -0.3 °C
Mus musculus [9]
  deltaT: -0.8 °C
Mus musculus [19]; route intraperitoneal
  Activity: 29%
Mus musculus [10]
  deltaT: -0.4 °C
Mus musculus [11]
  deltaT: -0.1 °C
Mus musculus [12]
  deltaT: -0.5 °C
Mus musculus [13]
  deltaT: -0.5 °C
Mus musculus [14]
  deltaT: -1.2 °C
Mus musculus [15]
  deltaT: -0.4 °C
Mus musculus [20]
  Activity: 926
[4]
  Ki: 58.1 nM
Mus musculus [16]
  deltaT: -1.9 °C
Mus musculus [17]
  deltaT: -0.3 °C
Mus musculus [21]
  Activity: 409
Mus musculus [18]
  deltaT: -0.4 °C

## O=c1c(-c2ccccc2F)c2ccccn2c(=O)n1CCCCN1CCC(c2c[nH]c3ccccc23)CC1
Mus musculus [5]
  deltaT: -0.7 °C
Mus musculus [6]
  deltaT: -0.8 °C
Mus musculus [7]
  deltaT: -0.1 °C
[3]
  Ki: 4.8 nM
Mus musculus [22]
  Activity: Active
Mus musculus [8]
  deltaT: -0.1 °C
Mus musculus [9]
  deltaT: -0.8 °C
Mus musculus [23]
  Activity: Active
Mus musculus [19]; route intraperitoneal
  Activity: 40%
Mus musculus [10]
  deltaT: -0.1 °C
Mus musculus [11]
  deltaT: -0.1 °C
Mus musculus [24]
  Activity: 179
Mus musculus [12]
  deltaT: -0.3 °C
Mus musculus [13]
  deltaT: -0.3 °C
Mus musculus [14]
  deltaT: -1.1 °C
Mus musculus [15]
  deltaT: -0.5 °C
Mus musculus [25]
  Activity: 399
[4]
  Ki: 0.7 nM
Mus musculus [16]
  deltaT: -0.7 °C
Mus musculus [17]
  deltaT: -0.3 °C
Mus musculus [18]
  deltaT: -0.2 °C

## O=c1c(-c2ccc(F)cc2)c2ccccn2c(=O)n1CCCCN1CCC(c2c[nH]c3ccccc23)CC1
Mus musculus [5]
  deltaT: -0.8 °C
Mus musculus [6]
  deltaT: -1 °C
Mus musculus [7]
  deltaT: -0.8 °C
[3]
  Ki: 9.2 nM
Mus musculus [26]; route intraperitoneal
  Activity: 34%
Mus musculus [9]
  deltaT: -1.2 °C
Mus musculus [27]
  deltaT: -0.8 °C
Mus musculus [28]
  deltaT: -0.8 °C
Mus musculus [10]
  deltaT: -0.4 °C
Mus musculus [11]
  deltaT: -0.3 °C
Mus musculus [24]
  Activity: 376
Mus musculus [12]
  deltaT: -0.3 °C
Mus musculus [14]
  deltaT: -1.2 °C
Mus musculus [15]
  deltaT: -0.4 °C
Mus musculus [25]
  Activity: 965
[4]
  Ki: 37.6 nM
Mus musculus [16]
  deltaT: -0.6 °C
Mus musculus [17]
  deltaT: -1 °C
Mus musculus [18]
  deltaT: -1.2 °C

## COc1ccc2[nH]cc(C3CCN(CCCCn4c(=O)c(-c5ccc(Cl)cc5)c5ccccn5c4=O)CC3)c2c1
[3]
  Ki: 41.1 nM
[4]
  Ki: 251 nM

## COc1ccc2[nH]cc(C3CCN(CCCCn4c(=O)c(-c5ccc(F)cc5)c5ccccn5c4=O)CC3)c2c1
[3]
  Ki: 34.6 nM
[4]
  Ki: 54.6 nM

## COc1ccc2[nH]cc(C3CCN(CCCCn4c(=O)c(-c5ccc(C)cc5)c5ccccn5c4=O)CC3)c2c1
[3]
  Ki: 59 nM
[4]
  Ki: 223 nM

## COc1ccc2[nH]cc(C3CCN(CCCCn4c(=O)c(-c5ccccc5)c5ccccn5c4=O)CC3)c2c1
[3]
  Ki: 52.3 nM
[4]
  Ki: 129 nM

## COc1ccc(-c2c(=O)n(CCCCN3CCC(c4c[nH]c5ccccc45)CC3)c(=O)n3ccccc23)cc1
Mus musculus [5]
  deltaT: -0.2 °C
Mus musculus [29]
  Activity: inactive
Mus musculus [6]
  deltaT: -0.2 °C
Mus musculus [7]
  deltaT: -0.2 °C
[3]
  Ki: 42.1 nM
Mus musculus [9]
  deltaT: -0.3 °C
Mus musculus [10]
  deltaT: -0.6 °C
Mus musculus [11]
  deltaT: -0.4 °C
Mus musculus [12]
  deltaT: -0.6 °C
Mus musculus [14]
  deltaT: -0.3 °C
Mus musculus [15]
  deltaT: -0.3 °C
[4]
  Ki: 145 nM
Mus musculus [16]
  deltaT: -0.1 °C
Mus musculus [17]
  deltaT: -0.1 °C
Mus musculus [18]
  deltaT: -0.3 °C

## Cc1ccc(-c2c(=O)n(CCCCN3CCC(c4c[nH]c5ccccc45)CC3)c(=O)n3ccccc23)cc1
Mus musculus [5]
  deltaT: -0.7 °C
Mus musculus [6]
  deltaT: -0.8 °C
Mus musculus [7]
  deltaT: -0.1 °C
[3]
  Ki: 5.8 nM
Mus musculus [26]
  Activity: inactive
Mus musculus [8]
  deltaT: -0.2 °C
Mus musculus [9]
  deltaT: -0.5 °C
Mus musculus [19]
  Activity: inactive
Mus musculus [10]
  deltaT: -0.1 °C
Mus musculus [11]
  deltaT: -0.1 °C
Mus musculus [12]
  deltaT: 0.2 °C
Mus musculus [13]
  deltaT: -0.3 °C
Mus musculus [14]
  deltaT: -1 °C
Mus musculus [15]
  deltaT: -0.4 °C
[4]
  Ki: 0.3 nM
Mus musculus [16]
  deltaT: -0.8 °C
Mus musculus [17]
  deltaT: -0.1 °C
Mus musculus [18]
  deltaT: -0.3 °C

## COc1ccc(-c2c(=O)n(CCCCN3CCC(c4c[nH]c5ccc(OC)cc45)CC3)c(=O)n3ccccc23)cc1
[3]
  Ki: 78 nM
[4]
  Ki: 129 nM

Reference: ChEMBL document CHEMBL1137726, “Novel 4-aryl-pyrido[1,2-c]pyrimidines with dual SSRI and 5-HT1A activity, part 1” (Eur J Med Chem, 2009)
